# Measurements published in patent US9867795B2, “Nitrated lipids and methods of making and using thereof” (The UAB Research Foundation, priority 2004, dated 2018).
# Tests used:
# hPPARδ = target: T1, hPPARδ (Homo sapiens, UniProt Q03181); assay: CV-1 PPRE×3 TK-Luciferase transient transfection assay; type: cell-based; conditions: PPRE reporter, CV-1 cells
# T1 construct: For assessing full-length PPAR receptors, CV-1 cells were transiently co-transfected; expressed in transfected cells; host or cells: CV-1 cells
# T1 sequence (Q03181 1-441): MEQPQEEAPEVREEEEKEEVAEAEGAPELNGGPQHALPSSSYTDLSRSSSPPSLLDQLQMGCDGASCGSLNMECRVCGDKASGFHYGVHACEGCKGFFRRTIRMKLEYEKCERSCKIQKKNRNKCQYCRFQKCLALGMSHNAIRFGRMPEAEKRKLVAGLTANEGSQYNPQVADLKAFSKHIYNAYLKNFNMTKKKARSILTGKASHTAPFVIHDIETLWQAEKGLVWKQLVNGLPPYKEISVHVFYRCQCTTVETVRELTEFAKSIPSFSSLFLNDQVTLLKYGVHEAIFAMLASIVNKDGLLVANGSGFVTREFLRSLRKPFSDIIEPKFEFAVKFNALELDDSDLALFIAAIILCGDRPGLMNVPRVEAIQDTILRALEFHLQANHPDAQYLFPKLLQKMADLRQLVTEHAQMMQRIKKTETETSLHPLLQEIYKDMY
# Procedure: Cell Transient Transfection Assay. CV-1 cells from ATCC (Manassas, Va.) were grown to ˜85% confluence in DMEM/F12 supplemented with 10% FBS, 1% penicillin-streptomycin. Then, cells were transiently co-transfected with a plasmid containing the luciferase gene under regulation by four Gal4 DNA binding elements (UASG×4 TK-Luciferase, a gift from Dr. Ronald M. Evans), in concert with plasmids containing the ligand binding domain for the different nuclear receptors fused to the Gal4 DNA binding domain. For assessing full-length PPAR receptors, CV-1 cells were transiently co-transfected with a plasmid containing the luciferase gene under the control of three tandem PPAR response elements (PPRE) (PPRE×3 TK-Luciferase) and hPPARγ, hPPARα or hPPARδ expression plasmids, respectively. In all cases, fluorescence protein (GFP) expression plasmid was co-transfected as the control for the transfection efficiency. Twenty-four hours after the transfection, cells were cultured for another 24 hours in Optium-MEM (Invitrogen, Carlsbad, Calif.). Then, cells were treated with different compounds as indicated in figures for 24 hours in Optium-MEM. […]
# PPAR transient transfection assay. […] In all cases, fluorescence protein (GFP) expression plasmid was co-transfected as the control for transfection efficiency. […]
# NF-kB pathways = assay: NF-kB pathway activity (NFkB-response element luciferase reporter, IkB degradation); type: cell-based; conditions: reporter in response to TNFa; IkB degradation in response to E. coli LPS
# [1] = Hydrophobic stabilization and micellar partition of LNO2; type: physicochemical
# Description: The formation of •NO was followed by EPR (measuring cPTI formation) in the presence of different concentrations of octyl-β-glucopyranoside (OG) and octyl-thio-β-glucopyranoside (OTG). The rate of •NO release was constant and not influenced by these detergents until the critical micellar concentration (CMC) for each was achieved, after which •NO formation was inhibited as the volume of the hydrophobic environment increased (FIG. 24A). Similar results were obtained when measuring •NO formation via conversion of oxymyoglobin to metmyoglobin. Apparent •NO release rates remained constant until OG concentration reached ˜2.8 mg/ml (CMC=2.77 mg/ml (11)). […] The inhibition of the NO2 group loss at 268 nm was paralleled by inhibition of the formation of oxidation products at 320 nm, similarly paralleling the detergent-induced inhibition of •NO release observed by EPR and oxymyoglobin-based detection.
# Thus, a plot of 1/v vs. α will yield a linear plot with slope divided by y-axis intercept equal to K−1.
# [2] = target: T2, retinoic X receptor α (RXRα) (Homo sapiens, UniProt P19793); assay: CV-1 Gal4 ligand binding domain luciferase reporter assay; type: cell-based; conditions: LNO2 1 μM; CV-1 cells
# T2 construct: expressed in transfected cells; host or cells: CV-1 cells
# T2 sequence (P19793 227-458 limits assumed): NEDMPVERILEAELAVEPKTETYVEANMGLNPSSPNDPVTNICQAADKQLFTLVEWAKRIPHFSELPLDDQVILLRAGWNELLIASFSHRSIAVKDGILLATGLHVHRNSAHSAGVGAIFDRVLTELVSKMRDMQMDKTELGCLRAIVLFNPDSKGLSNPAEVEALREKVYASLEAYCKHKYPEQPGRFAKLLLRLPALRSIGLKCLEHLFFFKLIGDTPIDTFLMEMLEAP
# Procedure: (§1) Cell Transient Transfection Assay. CV-1 cells from ATCC (Manassas, Va.) were grown to ˜85% confluence in DMEM/F12 supplemented with 10% FBS, 1% penicillin-streptomycin. Then, cells were transiently co-transfected with a plasmid containing the luciferase gene under regulation by four Gal4 DNA binding elements (UASG×4 TK-Luciferase, a gift from Dr. Ronald M. Evans), in concert with plasmids containing the ligand binding domain for the different nuclear receptors fused to the Gal4 DNA binding domain. For assessing full-length PPAR receptors, CV-1 cells were transiently co-transfected with a plasmid containing the luciferase gene under the control of three tandem PPAR response elements (PPRE) (PPRE×3 TK-Luciferase) and hPPARγ, hPPARα or hPPARδ expression plasmids, respectively. In all cases, fluorescence protein (GFP) expression plasmid was co-transfected as the control for the transfection efficiency. Twenty-four hours after the transfection, cells were cultured for another 24 hours in Optium-MEM (Invitrogen, Carlsbad, Calif.). Then, cells were treated with different compounds as indicated in figures for 24 hours in Optium-MEM. Reporter luciferase assay kits from Promega (Madison, Wis.) were used to measure the luciferase activity according to the manufacturer's instructions with a luminometer (Victor II, Perkin-Elmer). Luciferase activity was normalized by GFP units. Each condition was performed at least in triplicates in each experiment.
# [3] = target: T3, mineralocorticoid receptor (MR) (Homo sapiens, UniProt P08235); assay: as above; type: cell-based; conditions: LNO2 1 μM; CV-1 cells
# T3 construct: expressed in transfected cells; host or cells: CV-1 cells
# T3 sequence (P08235 726-964 limits assumed): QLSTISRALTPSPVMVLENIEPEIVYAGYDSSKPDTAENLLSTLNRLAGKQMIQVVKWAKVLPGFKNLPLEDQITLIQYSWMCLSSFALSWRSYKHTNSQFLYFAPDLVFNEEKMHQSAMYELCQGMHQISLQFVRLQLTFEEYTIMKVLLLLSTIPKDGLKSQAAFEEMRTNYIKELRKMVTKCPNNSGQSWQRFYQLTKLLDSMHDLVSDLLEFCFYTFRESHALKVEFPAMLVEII
# Procedure: as §1
# [4] = target: T4, progesterone receptor (PR) (Homo sapiens, UniProt P06401); assay: as above; type: cell-based; conditions: LNO2 1 μM; CV-1 cells
# T4 construct: expressed in transfected cells; host or cells: CV-1 cells
# T4 sequence (P06401 679-913 limits assumed): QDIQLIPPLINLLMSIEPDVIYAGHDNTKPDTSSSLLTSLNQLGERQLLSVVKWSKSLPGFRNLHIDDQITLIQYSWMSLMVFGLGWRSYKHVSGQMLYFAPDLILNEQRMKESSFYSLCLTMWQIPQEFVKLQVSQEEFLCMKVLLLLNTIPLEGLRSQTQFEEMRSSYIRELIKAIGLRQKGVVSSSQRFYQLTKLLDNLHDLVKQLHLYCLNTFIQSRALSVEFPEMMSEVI
# Procedure: as §1
Substance,concentration at which PPARδ activation is significantly different from vehicle (hPPARδ; FIG. 17 legend),concentration at which PPARδ shows significant activation (hPPARδ; text of Example 3),activity of NF-kB pathways (NF-kB pathways),partition coefficient K ([1]; FIG. 28 legend),stability in organic solvents ([1]; organic solvents such as n-octanol),RXRα receptor activation [2],MR receptor activation [3],PR receptor activation [4]
9- and 10-nitro-9-cis-octadecenoic acid [OA-NO2],1 µM,~300 nM,,,,,,
"10-nitro-9,12-octadecadienoic acid and 12-nitro-9,12-octadecadienoic acid [LNO2]",,,inhibits activity of NF-kB pathways,~1500,stable,no impact,no impact,no impact
